Assay results: patent US12365687B2 (Hoffmann-La Roche Inc., priority 2021, dated 2025)

Columns and labels:
[1] = target: α2β2γ1 GABAA receptor subtype (Homo sapiens (Human), UniProt P47869+Q8N1C3); experiment: Two-electrode voltage clamp electrophysiology in Xenopus oocytes expressing GABAA receptors (modulation of GABA EC20 current); format: cell-based; conditions: for Efficacy (GABA)%: % modulation of GABA EC20 = 100*(Fold increase-1), α2β2γ1 oocytes, compound at approx. 30-fold Ki; for Fold increase h-GABA-A α2β2γ1 oocyte @ 30-fold Ki: Xenopus oocytes expressing α2β2γ1, compound at approx. 30-fold its Ki α2β2γ1, GABA EC20 current
Procedure, shortened: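 Each concentration was tested on ≥3 oocytes held at −80 mV at room temperature, recorded 3-5 days post-injection. A control and a test response to EC20 GABA (1.5 min each) were superimposed and their point-by-point ratio taken. Peak ratio reported as % modulation of GABA EC20 = 100×(fold increase−1).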

[2] = target: human GABAA α1β3γ2 receptor (Homo sapiens (Human), UniProt P14867+P18507); experiment: Radioligand binding assay for γ2-containing GABAA subtypes, [3H]Flumazenil competition (α1β3γ2); conditions: for γ2/γ1 Selectivity Ratio: Ki α1β3γ2 (nM)/Ki α2β2γ1 (nM); for LogSel: Log[Ki α1β3γ2 (nM)/Ki α2β2γ1 (nM)]
[3] = target: human GABAA α5β2γ1 receptor (Homo sapiens (Human), UniProt P31644+Q8N1C3); experiment: Radioligand binding assay for γ1-containing GABAA subtypes, [3H]RO7239181 competition (α5β2γ1)
[4] = target: human GABAA α2β2γ1 receptor (Homo sapiens (Human), UniProt P47869+Q8N1C3); experiment: Radioligand binding assay for γ1-containing GABAA subtypes, [3H]RO7239181 competition (α2β2γ1)
[5] = Ki h-GABAA α2β2γ1, [3H]RO7239181 competition binding, human GABAA α2β2γ1
[6] = Ki h-GABAA α2β2γ1, displacement of [3H]RO7239181, membranes of HEK293F cells expressing human receptors, means of two determinations

## C[C@@H]1N=C(c2ncccc2F)c2c(ccc(C(F)(F)F)c2Cl)-n2nc(C(=O)N3CCS(=O)(=O)CC3)nc21 [Example 124, [(4S)-7-chloro-6-(3-fluoro-2-pyridyl)-4-methyl-8-(trifluoromethyl)-4H-[1,2,4]triazolo[1,5-a][1,4]benzodiazepin-2-yl]-(1,1-dioxo-1,4-thiazinan-4-yl)methanone]
[1]
  Efficacy (GABA)%: 145%
  Fold increase h-GABA-A α2β2γ1 oocyte @ 30-fold Ki: 2.45
[2]
  Ki: 14400 nM
  γ2/γ1 Selectivity Ratio: 547.2
  LogSel: 2.74
[3]
  Ki: 6.32 nM
[4]; [5]
  Ki: 26.2 nM
[4]; [6]
  Ki: 26.2 nM

## C[C@@H]1N=C(c2c(F)cccc2F)c2c(ccc(Cl)c2Cl)-n2nc(C(=O)NCC#N)nc21 [Example 56, (4S)-7,8-dichloro-N-(cyanomethyl)-6-(2,6-difluorophenyl)-4-methyl-4H-[1,2,4]triazolo[1,5-a][1,4]benzodiazepine-2-carboxamide]
[1]
  Efficacy (GABA)%: 72%
  Fold increase h-GABA-A α2β2γ1 oocyte @ 30-fold Ki: 1.72
[2]
  Ki: 432 nM
  γ2/γ1 Selectivity Ratio: 93.4
  LogSel: 1.97
[3]
  Ki: 0.85 nM
[4]; [5]
  Ki: 4.6 nM
[4]; [6]
  Ki: 4.63 nM

## C[C@@H]1N=C(c2ncccc2F)c2c(ccc(Br)c2Cl)-n2nc(C(=O)N3CCC3)nc21 [Example 48, azetidin-1-yl-[(4S)-8-bromo-7-chloro-6-(3-fluoro-2-pyridyl)-4-methyl-4H-[1,2,4]triazolo[1,5-a][1,4]benzodiazepin-2-yl]methanone]
[1]
  Efficacy (GABA)%: 94%
  Fold increase h-GABA-A α2β2γ1 oocyte @ 30-fold Ki: 1.94
[2]
  Ki: 1310 nM
  γ2/γ1 Selectivity Ratio: 70.2
  LogSel: 1.85
[3]
  Ki: 3.22 nM
[4]; [5]
  Ki: 18.6 nM
[4]; [6]
  Ki: 18.6 nM

## C[C@@H]1N=C(c2c(F)cccc2F)c2c(ccc(C(F)(F)F)c2Cl)-n2c1nc1c2CCC1 [Example 133, (10S)-6-chloro-8-(2,6-difluorophenyl)-10-methyl-5-(trifluoromethyl)-1,9,12-triazatetracyclo[9.6.0.02,7.013,17]heptadeca-2,4,6,8,11,13(17)-hexaene]
[1]
  Efficacy (GABA)%: 41%
  Fold increase h-GABA-A α2β2γ1 oocyte @ 30-fold Ki: 1.41
[2]
  Ki: 827 nM
  γ2/γ1 Selectivity Ratio: 35.5
  LogSel: 1.55
[3]
  Ki: 5.23 nM
[4]; [5]
  Ki: 23.3 nM
[4]; [6]
  Ki: 23.3 nM

## C[C@@H]1N=C(c2c(F)cccc2F)c2c(ccc(Cl)c2Cl)-n2nc(C(=O)NCCF)nc21 [Example 30, (4S)-7,8-dichloro-6-(2,6-difluorophenyl)-N-(2-fluoroethyl)-4-methyl-4H-[1,2,4]triazolo[1,5-a][1,4]benzodiazepine-2-carboxamide]
[1]
  Efficacy (GABA)%: 78%
  Fold increase h-GABA-A α2β2γ1 oocyte @ 30-fold Ki: 1.78
[2]
  Ki: 660 nM
  γ2/γ1 Selectivity Ratio: 91.5
  LogSel: 1.96
[3]
  Ki: 1.39 nM
[4]; [5]
  Ki: 7.2 nM
[4]; [6]
  Ki: 7.21 nM

## C[C@@H]1N=C(c2ncccc2F)c2c(ccc(C(F)(F)F)c2Cl)-n2nc(C(=O)NCCO)nc21 [Example 138, (4S)-7-chloro-6-(3-fluoro-2-pyridyl)-N-(2-hydroxyethyl)-4-methyl-8-(trifluoromethyl)-4H-[1,2,4]triazolo[1,5-a][1,4]benzodiazepine-2-carboxamide]
[1]
  Efficacy (GABA)%: 204%
  Fold increase h-GABA-A α2β2γ1 oocyte @ 30-fold Ki: 3.04
[2]
  Ki: > 30000 nM
  γ2/γ1 Selectivity Ratio: 334.8
  LogSel: 2.52
[3]
  Ki: 17.1 nM
[4]; [5]
  Ki: 89.6 nM
[4]; [6]
  Ki: 89.6 nM

## C[C@@H]1N=C(c2ncccc2F)c2c(ccc(Cl)c2Cl)-n2nc(C(=O)N3CC(O)C3)nc21 [Example 44, [(4S)-7,8-dichloro-6-(3-fluoro-2-pyridyl)-4-methyl-4H-[1,2,4]triazolo[1,5-a][1,4]benzodiazepin-2-yl]-(3-hydroxyazetidin-1-yl)methanone]
[1]
  Efficacy (GABA)%: 133%
  Fold increase h-GABA-A α2β2γ1 oocyte @ 30-fold Ki: 2.33
[2]
  Ki: 6620 nM
  γ2/γ1 Selectivity Ratio: 255.1
  LogSel: 2.41
[3]
  Ki: 9.52 nM
[4]; [5]
  Ki: 25.9 nM
[4]; [6]
  Ki: 25.9 nM

## C[C@@H]1N=C(c2c(F)cccc2F)c2c(ccc(C(F)(F)F)c2Cl)-n2nc(NC(=O)N3CCS(=O)(=O)CC3)nc21 [Example 131, N-[(4S)-7-chloro-6-(2,6-difluorophenyl)-4-methyl-8-(trifluoromethyl)-4H-[1,2,4]triazolo[1,5-a][1,4]benzodiazepin-2-yl]-1,1-dioxo-1,4-thiazinane-4-carboxamide]
[1]
  Efficacy (GABA)%: 104%
  Fold increase h-GABA-A α2β2γ1 oocyte @ 30-fold Ki: 2.04
[2]
  Ki: 2430 nM
  γ2/γ1 Selectivity Ratio: 176.5
  LogSel: 2.25
[3]
  Ki: 3.38 nM
[4]; [5]
  Ki: 13.8 nM
[4]; [6]
  Ki: 13.8 nM

## CO[C@H]1CCN(C(=O)c2nc3n(n2)-c2ccc(Cl)c(Cl)c2C(c2ncccc2F)=N[C@H]3C)C1 [Example 89, [(4S)-7,8-dichloro-6-(3-fluoro-2-pyridyl)-4-methyl-4H-[1,2,4]triazolo[1,5-a][1,4]benzodiazepin-2-yl]-[(3S)-3-methoxypyrrolidin-1-yl]methanone]
[1]
  Efficacy (GABA)%: 113%
  Fold increase h-GABA-A α2β2γ1 oocyte @ 30-fold Ki: 2.13
[2]
  Ki: 6350 nM
  γ2/γ1 Selectivity Ratio: 91.2
  LogSel: 1.96
[3]
  Ki: 6.15 nM
[4]; [5]
  Ki: 69.7 nM
[4]; [6]
  Ki: 69.7 nM

## C[C@@H]1N=C(c2c(F)cccc2F)c2c(ccc(Cl)c2Cl)-n2nc(C(=O)N3CC(F)C3)nc21 [Example 40, [(4S)-7,8-dichloro-6-(2,6-difluorophenyl)-4-methyl-4H-[1,2,4]triazolo[1,5-a][1,4]benzodiazepin-2-yl]-(3-fluoroazetidin-1-yl)methanone]
[1]
  Efficacy (GABA)%: 89%
  Fold increase h-GABA-A α2β2γ1 oocyte @ 30-fold Ki: 1.89
[2]
  Ki: 672 nM
  γ2/γ1 Selectivity Ratio: 91.4
  LogSel: 1.96
[3]
  Ki: 0.9 nM
[4]; [5]
  Ki: 7.4 nM
[4]; [6]
  Ki: 7.35 nM

## COC1CN(C(=O)c2nc3n(n2)-c2ccc(Cl)c(Cl)c2C(c2ncccc2F)=NC3)C1 [Example 62, [7,8-dichloro-6-(3-fluoro-2-pyridyl)-4H-[1,2,4]triazolo[1,5-a][1,4]benzodiazepin-2-yl]-(3-methoxyazetidin-1-yl)methanone]
[1]
  Efficacy (GABA)%: 93%
  Fold increase h-GABA-A α2β2γ1 oocyte @ 30-fold Ki: 1.93
[2]
  Ki: 773 nM
  γ2/γ1 Selectivity Ratio: 85.7
  LogSel: 1.93
[3]
  Ki: 3.7 nM
[4]; [5]
  Ki: 9 nM
[4]; [6]
  Ki: 9 nM

## C[C@@H]1N=C(c2c(F)cccc2F)c2c(ccc(Cl)c2Cl)-n2nc(C(=O)N3CC4(CCOCC4)C3)nc21 [Example 99, [(4S)-7,8-dichloro-6-(2,6-difluorophenyl)-4-methyl-4H-[1,2,4]triazolo[1,5-a][1,4]benzodiazepin-2-yl]-(7-oxa-2-azaspiro[3.5]nonan-2-yl)methanone]
[1]
  Efficacy (GABA)%: 52%
  Fold increase h-GABA-A α2β2γ1 oocyte @ 30-fold Ki: 1.52
[2]
  Ki: 1550 nM
  γ2/γ1 Selectivity Ratio: 348.9
  LogSel: 2.54
[3]
  Ki: 3.29 nM
[4]; [5]
  Ki: 4.5 nM
[4]; [6]
  Ki: 4.45 nM

## C[C@@H]1N=C(c2ncccc2F)c2c(ccc(C(F)(F)F)c2Cl)-n2nc(C(=O)N3CC4(COC4)C3)nc21 [Example 112, [(4S)-7-chloro-6-(3-fluoro-2-pyridyl)-4-methyl-8-(trifluoromethyl)-4H-[1,2,4]triazolo[1,5-a][1,4]benzodiazepin-2-yl]-(2-oxa-6-azaspiro[3.3]heptan-6-yl)methanone]
[1]
  Efficacy (GABA)%: 136%
  Fold increase h-GABA-A α2β2γ1 oocyte @ 30-fold Ki: 2.36
[2]
  Ki: > 30000 nM
  γ2/γ1 Selectivity Ratio: 484.1
  LogSel: 2.68
[3]
  Ki: 9.85 nM
[4]; [5]
  Ki: 62 nM
[4]; [6]
  Ki: 62 nM

## C[C@@H]1N=C(c2ncccc2F)c2c(ccc(C(F)(F)F)c2Cl)-n2nc(NC(=O)NC3COC3)nc21 [Example 146, 1-[(4S)-7-chloro-6-(3-fluoro-2-pyridyl)-4-methyl-8-(trifluoromethyl)-4H-[1,2,4]triazolo[1,5-a][1,4]benzodiazepin-2-yl]-3-(oxetan-3-yl)urea]
[1]
  Efficacy (GABA)%: 111%
  Fold increase h-GABA-A α2β2γ1 oocyte @ 30-fold Ki: 2.11
[2]
  Ki: 13100 nM
  γ2/γ1 Selectivity Ratio: 364.3
  LogSel: 2.56
[3]
  Ki: 7.2 nM
[4]; [5]
  Ki: 36.1 nM
[4]; [6]
  Ki: 36.1 nM

## C[C@@H]1N=C(c2c(F)cccc2F)c2c(ccc(C(F)(F)F)c2Cl)-n2c(CO)cnc21 [Example 132, [(4S)-7-chloro-6-(2,6-difluorophenyl)-4-methyl-8-(trifluoromethyl)-4H-imidazo[1,2-a][1,4]benzodiazepin-1-yl]methanol]
[1]
  Efficacy (GABA)%: 105%
  Fold increase h-GABA-A α2β2γ1 oocyte @ 30-fold Ki: 2.05
[2]
  Ki: 2560 nM
  γ2/γ1 Selectivity Ratio: 75.8
  LogSel: 1.88
[3]
  Ki: 2.63 nM
[4]; [5]
  Ki: 33.8 nM
[4]; [6]
  Ki: 33.8 nM

## Cc1nc2n(n1)-c1ccc(Cl)c(Cl)c1C(c1c(F)cccc1F)=NC2 [Example 32, 7,8-dichloro-6-(2,6-difluorophenyl)-2-methyl-4H-[1,2,4]triazolo[1,5-a][1,4]benzodiazepine]
[1]
  Efficacy (GABA)%: 26%
  Fold increase h-GABA-A α2β2γ1 oocyte @ 30-fold Ki: 1.26
[2]
  Ki: 163 nM
  γ2/γ1 Selectivity Ratio: 67.1
  LogSel: 1.83
[3]
  Ki: 0.6 nM
[4]; [5]
  Ki: 2.4 nM
[4]; [6]
  Ki: 2.44 nM
